These results are taken from US9403894B2, “Glucagon analogues” (Zealand Pharma A/S, priority 2010, dated 2016).

The structures appear in SMILES notation. Residues, ends and D or L forms follow the SMILES beside them.

In series [1] the test system is diet induced obese C57BL/6J mice. Description: 3 weeks s.c. treatment in diet induced obese C57BL/6J mice: body weight and OGTT. The series is classed as in vivo. Conditions: s.c. twice daily. The method, then:
C57Bl/6J male mice, 6 weeks old, were acclimatized in their new environment with free access to a high fat diet and water. 36 weeks old, the animals were randomized into groups with similar average fasting (6 hours) blood glucose (assessed from blood samples taken from the tip of the tail). The mice were treated twice daily s.c. for three weeks with compound 6 or vehicle. Body weight was recorded daily. After peptide treatment an oral glucose tolerance test (OGTT) were performed after subjecting the animals to a 6 hour fast. Animals were dosed with peptide or vehicle in the morning. Approximately four hours later an initial blood sample (fasting blood glucose level) was taken. Thereafter an oral dose of glucose was given and the animals were returned to their home cages (t=0). BG was measured at t=15 min, t=30 min, t=60 min, t=90 min and t=120 min. All animals were sacrificed immediately following blood sampling by CO2 anesthesia followed by cervical dislocation.

A short description of another series: in vivo. The following applies: male, cynomolgus monkey.
A further series concerns the target Glucagon receptor (Homo sapiens, UniProt P47871). Conditions: at 12.5 μM and 125 nM. The method, then: Unless specified otherwise, the sample compounds were diluted in 100% anhydrous DMSO including all dilutions. If the sample compound is provided in a different solvent all master stock dilutions are performed in the specified solvent. All control wells contained identical solvent final concentrations as the sample compound wells.
Reference agonists were handled as mentioned above serving as assay control. The reference agonists were handled as described above for Emax.

Another series concerns db/db mice. Description: 6 weeks s.c. administration in db/db mice: HbA1c and body weight. Conditions: versus vehicle. The series is classed as in vivo. The method, then:
The HbA1c determination is based on Turbidimetric INhibition ImmunoAssay (TINIA) in which HbA1c in the sample reacts with anti-HbA1c to form soluble antigen-antibody complexes. Additions of polyhaptens react with excess anti-HbA1c antibodies to form an insoluble antibody-polyhapten complex, which can be measured turbidimetrically. Liberated hemoglobin in the hemolyzed sample is converted to a derivative having a characteristic absorption spectrum, which is measured bichromatically during the preincubation phases. The final result is expressed as percent HbA1c of total hemoglobin (Cobas®Application note A1C-2).
db/db (BKS.Cg-m+/+ Lepr^db/J) male mice, 5-6 weeks old, were obtained from Charles River Laboratories, Germany, and acclimatized in their new environment with free access to normal chow and water. […] Throughout the study, body weights were recorded daily and used to administer the body weight-corrected doses of peptide. HbA1c levels were measured on blood samples before treatment, and then once weekly during the study. […]
Blood samples were analyzed for HbA1c using the Cobas c111 analyzer (Roche Diagnostics, Mannheim, Germany). Samples for HbA1c analysis were analyzed within 24 hours of sampling.
Throughout the study, body weights were recorded daily and used to administer the body weight-corrected doses of peptide. […]

Another series relates to high fat diet fed mice. As to the kind of experiment: 3 weeks s.c. treatment, lipids in 30 weeks high fat diet fed mice. It is filed as in vivo. Conditions: 30 weeks high fat diet mice, 10 nmol/kg s.c. twice daily. As to the method:
The assay is an enzymatic colorimetric method. In the presence of magnesium ions, dextran sulfate selectively forms water-soluble complexes with LDL, VLDLA and chylomicrons, which are resistant to PEG-modified enzymes. The HDL cholesterol is determined enzymatically by cholesterol esterase and cholesterol oxidase coupled with PEG to the amino groups. Cholesterol esters are broken down quantitatively to free cholesterol and fatty acids. HDL cholesterol is enzymatically oxidized to choles-4-en-3-one and H2O2, and the formed H2O2 is measured colorimetrically (Cobas®; Application note HDLC3).
The direct determination of LDL takes advantage of the selective micellary solubilization of LDL by a nonionic detergent and the interaction of a sugar compound and lipoproteins (VLDL and chylomicrons). The combination of a sugar compound with detergent enables the selective determination of LDL in plasma. The test principle is the same as that of cholesterol and HDL, but due to the sugar and detergent only LDL-cholesterol esters are broken down to free cholesterol and fatty acids. Free cholesterol is then oxidized and the formed H2O2 is measured colorimetrically (Application note LDL_C, Cobas®).
The effect was measured on LDL, HDL and triglycerides (CHO: Total Cholesterol; HDL: High Density Cholesterol; LDL: Low Density Cholesterol; TRIG: Triglycerides; HDULDL: Ratio between HDL and LDL).

Another series addresses GLP-1 receptor (Homo sapiens, UniProt P43220). Description: Class B GPCR counterscreen, calcium flux agonist format. The following applies: at 12.5 μM and 125 nM. The series is classed as cell-based. The text has this:
(§1) The protocol design is as follows:
On the technique in general: A counterscreen serves to expose hits that act by an unwanted route or on another target.

A further series deals with Secretin receptor (Homo sapiens, UniProt P47872). Description: Class B GPCR counterscreen, calcium flux antagonist format. It is filed as cell-based. Conditions: at 10 μM. The method, then: as §1
Sequence of Secretin receptor (P47872 23-440, species assumed): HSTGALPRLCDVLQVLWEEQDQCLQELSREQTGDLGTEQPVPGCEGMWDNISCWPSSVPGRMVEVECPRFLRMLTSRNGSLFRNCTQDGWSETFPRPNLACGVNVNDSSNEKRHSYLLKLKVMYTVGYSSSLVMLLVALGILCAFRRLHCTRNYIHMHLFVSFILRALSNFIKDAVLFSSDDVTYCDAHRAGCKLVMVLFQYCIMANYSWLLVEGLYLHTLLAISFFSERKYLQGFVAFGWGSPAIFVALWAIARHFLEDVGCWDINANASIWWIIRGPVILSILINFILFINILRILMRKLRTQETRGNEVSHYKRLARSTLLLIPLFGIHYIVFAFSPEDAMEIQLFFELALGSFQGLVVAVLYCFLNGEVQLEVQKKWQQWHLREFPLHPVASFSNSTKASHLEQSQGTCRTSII
(§2) Using the EC80 values determined previously, stimulated all pre-incubated sample compound and reference antagonist (if applicable) wells with EC80 of reference agonist.
(§3) Read for 180 seconds using the FLIPR^TETRA (this addition added reference agonist to respective wells)—then fluorescence measurements were collected to calculate IC50-values.

The target of the next series is T1, CRF2 receptor (Homo sapiens, UniProt Q13324).
T1 sequence (Q13324 1-411): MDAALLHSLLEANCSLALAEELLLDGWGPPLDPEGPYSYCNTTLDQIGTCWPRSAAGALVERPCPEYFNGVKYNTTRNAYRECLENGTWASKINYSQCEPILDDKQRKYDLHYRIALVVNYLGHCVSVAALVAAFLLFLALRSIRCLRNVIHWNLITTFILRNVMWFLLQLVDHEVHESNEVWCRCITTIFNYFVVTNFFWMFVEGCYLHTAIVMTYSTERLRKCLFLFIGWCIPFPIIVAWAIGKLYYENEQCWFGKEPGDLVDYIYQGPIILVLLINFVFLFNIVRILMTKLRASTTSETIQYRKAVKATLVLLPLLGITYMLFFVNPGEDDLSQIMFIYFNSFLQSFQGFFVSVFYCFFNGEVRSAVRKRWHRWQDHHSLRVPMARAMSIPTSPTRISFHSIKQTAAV
The series is described as above. It is filed as cell-based. The following applies: at 10 μM. The method, then: as §1, §2, §3

The next series has as its target T2, GIP receptor (Homo sapiens, UniProt P48546).
T2 sequence (P48546 22-466): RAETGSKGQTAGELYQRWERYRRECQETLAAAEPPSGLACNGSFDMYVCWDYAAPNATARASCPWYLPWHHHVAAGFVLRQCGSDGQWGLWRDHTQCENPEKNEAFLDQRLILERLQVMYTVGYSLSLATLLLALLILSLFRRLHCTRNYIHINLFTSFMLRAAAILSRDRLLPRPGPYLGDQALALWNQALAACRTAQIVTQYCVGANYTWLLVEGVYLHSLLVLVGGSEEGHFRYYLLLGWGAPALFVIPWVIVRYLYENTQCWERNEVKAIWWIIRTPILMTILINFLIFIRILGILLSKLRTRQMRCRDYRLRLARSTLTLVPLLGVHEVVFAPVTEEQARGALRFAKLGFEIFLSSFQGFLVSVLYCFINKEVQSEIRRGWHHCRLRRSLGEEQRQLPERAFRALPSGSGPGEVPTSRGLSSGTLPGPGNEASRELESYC
Described as above. The following applies: at 10 μM and 100 nM. It is filed as cell-based. As to the method:
as §1, §2, §3

Series [2] deals with high fat fed C57BL/6J mice. As to the kind of experiment: Body weight gain in high fat fed C57BL/6J mice, 10 days s.c. treatment. It is filed as in vivo. Conditions: both doses 0.5 and 5 nmol/kg s.c. twice daily. As to the method: C57BL/6J mice were acclimatized in their new environment for 4 weeks with free access to a high fat diet and water. […] Throughout the study, body weights were recorded daily and used to administer the body weight-corrected doses of peptide (FIG. 6). Mice were sacrificed by cervical dislocation.

Setting [3] is: diet induced obese C57BL/6J mice.

Sequence of Glucagon receptor (P47871 26-477): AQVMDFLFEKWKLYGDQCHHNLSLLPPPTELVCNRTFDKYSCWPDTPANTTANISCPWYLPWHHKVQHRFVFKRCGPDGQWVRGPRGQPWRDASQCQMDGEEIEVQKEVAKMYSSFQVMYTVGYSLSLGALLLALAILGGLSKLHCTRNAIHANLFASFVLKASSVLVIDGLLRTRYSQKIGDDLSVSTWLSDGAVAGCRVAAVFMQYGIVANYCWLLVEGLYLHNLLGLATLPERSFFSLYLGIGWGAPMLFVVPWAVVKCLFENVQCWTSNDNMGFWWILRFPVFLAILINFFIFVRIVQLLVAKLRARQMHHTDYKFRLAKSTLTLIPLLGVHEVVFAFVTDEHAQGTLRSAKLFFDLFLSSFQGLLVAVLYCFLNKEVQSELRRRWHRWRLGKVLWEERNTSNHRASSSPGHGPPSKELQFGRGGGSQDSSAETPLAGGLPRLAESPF
Sequence of GLP-1 receptor (P43220 24-463): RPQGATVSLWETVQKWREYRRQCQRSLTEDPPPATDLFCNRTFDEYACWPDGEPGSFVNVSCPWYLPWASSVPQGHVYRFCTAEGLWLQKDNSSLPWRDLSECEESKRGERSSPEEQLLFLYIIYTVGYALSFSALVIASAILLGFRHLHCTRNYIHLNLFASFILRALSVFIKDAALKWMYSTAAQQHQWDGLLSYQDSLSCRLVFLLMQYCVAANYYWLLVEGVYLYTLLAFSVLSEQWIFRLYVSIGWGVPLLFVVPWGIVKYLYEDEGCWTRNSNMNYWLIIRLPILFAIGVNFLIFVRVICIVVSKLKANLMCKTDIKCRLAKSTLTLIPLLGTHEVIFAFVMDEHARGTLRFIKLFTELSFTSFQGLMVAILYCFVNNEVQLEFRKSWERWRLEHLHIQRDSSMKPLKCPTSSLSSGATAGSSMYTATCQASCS
Experimental for in vivo: Plasma samples were withdrawn at the following time points; predose, 5, 10, 30 min, 1, 2, 4, 8, 12, 24 and 36 h post i.v. dosing and predose, 10, 30 min, 1, 2, 4, 8, 12, 24, 36 and 48 h post s.c. dosing. The vehicle consisted of 25 mM phosphate buffered saline at pH 7.4 (25 mM sodium phosphate, 25 mM NaCl). Plasma samples were analyzed using protein precipitation followed by solid phase extraction and LC-MS/MS analysis. Pharmacokinetic parameters were calculated using non-compartmental analysis in WinNonLin version 4.1.

As usually defined, the bioavailability is the share of a dose that reaches the circulation, judged against a reference dose that is usually intravenous. One may read the Tmax as the time at which the peak concentration occurs. Turning to `CCCCCCCCCCCCCCCC(=O)N[C@@H](CCC(=O)NCCCC[C@H](NC(=O)[C@H](CCC(=O)O)NC(=O)[C@H](CC(=O)O)NC(=O)[C@H](CC(C)C)NC(=O)[C@H](Cc1ccc(O)cc1)NC(=O)[C@H](CCCCN)NC(=O)[C@H](CO)NC(=O)[C@H](Cc1ccc(O)cc1)NC(=O)[C@H](CC(=O)O)NC(=O)[C@H](CO)NC(=O)[C@@H](NC(=O)[C@H](Cc1ccccc1)NC(=O)[C@@H](NC(=O)CNC(=O)[C@H](CCC(N)=O)NC(=O)[C@H](CO)NC(=O)[C@@H](N)Cc1c[nH]cn1)[C@@H](C)O)[C@@H](C)O)C(=O)N[C@@H](CCCNC(=N)N)C(=O)N[C@@H](C)C(=O)N[C@@H](CCCCN)C(=O)N[C@@H](CC(=O)O)C(=O)N[C@@H](Cc1ccccc1)C(=O)N[C@H](C(=O)N[C@@H](CCC(=O)O)C(=O)N[C@@H](Cc1c[nH]c2ccccc12)C(=O)N[C@@H](CC(C)C)C(=O)N[C@@H](CC(C)C)C(=O)N[C@@H](CO)C(=O)N[C@@H](C)C(N)=O)[C@@H](C)CC)C(=O)O` [Compound 6], the “decrease of body weight” value in series [1] (diet induced obese C57BL/6J mice (30 weeks high fat diet), p<0.05) was determined as 38.7%. In [1] (setting [3]), the “body weight level reached compared with non-treated controls on regular chow diet” value is reported as “stabilized to the same body weight as obtained by non-treated control animals on a regular chow diet” and the “effect on fasting blood glucose” value is listed as “significantly decreased fasting blood glucose”. For the same molecule, the “effect on glucose tolerance (decrease in AUC during OGTT)” value in [1] (diet induced obese C57BL/6J mice, 6 hour fast) was “no significant effect on glucose tolerance”. The molecule further gave a bioavailability in “in vivo” of 43%. In addition, the Tmax in “in vivo” (sc, 20 nmol/kg) was in the range of 4 to 8 h. Further, at Glucagon receptor, the “agonist activity, Glucagon receptor” value is reported as “exhibited agonist activities”. Moreover, the “effect on body weight gain” value in the series with db/db mice (db/db mice, 5 nmol/kg s.c. twice daily, p<0.0001) is reported as “significantly decreased body weight gain compared to vehicle”. Also, the “effect on increase in HbA1c over time” value in the series on db/db mice (db/db mice, 1, 2.5 and 5 nmol/kg s.c. twice daily) is listed as “did not at any time-point reduce the increase in HbA1c”. In addition, in the series on high fat diet fed mice (P<0.001), the “effect on HDL” value was “significantly decreased”, the “effect on LDL” value is listed as “significantly decreased” and the “effect on total cholesterol” value is on record as “significantly decreased”. The effect on triglycerides result in the series on high fat diet fed mice (P<0.05) is reported as “significantly decreased”. The “effect on ratio HDULDL” value with high fat diet fed mice (p<0.001) is recorded as “increased significantly”. The “agonist activity, GLP-1 receptor” value on GLP-1 receptor is “exhibited agonist activities”. Further, the “antagonist activity, Secretin receptor” value at Secretin receptor was “exhibited antagonist activity”. On CRF2 receptor, the “antagonist activity, CRF2 receptor” value is reported as “exhibited antagonist activity”. Moreover, the “antagonist activity, GIP receptor” value at GIP receptor was “exhibited antagonist activity”. Besides, the “effect on body weight gain” value in [2] is recorded as “significantly decreased body weight gain”.

On to `CCCCCCCCCCCCCCCC(=O)N[C@@H](CCC(=O)NCCCC[C@H](NC(=O)[C@H](CCC(=O)O)NC(=O)[C@H](CC(=O)O)NC(=O)[C@H](CC(C)C)NC(=O)[C@H](Cc1ccc(O)cc1)NC(=O)[C@H](CCCCN)NC(=O)[C@H](CO)NC(=O)[C@H](Cc1ccc(O)cc1)NC(=O)[C@H](CC(=O)O)NC(=O)[C@H](CO)NC(=O)[C@@H](NC(=O)[C@H](Cc1ccccc1)NC(=O)[C@@H](NC(=O)CNC(=O)[C@H](CCC(N)=O)NC(=O)C(C)(C)NC(=O)[C@@H](N)Cc1c[nH]cn1)[C@@H](C)O)[C@@H](C)O)C(=O)N[C@@H](CCCNC(=N)N)C(=O)N[C@@H](C)C(=O)N[C@@H](CCCCN)C(=O)N[C@@H](CC(=O)O)C(=O)N[C@@H](Cc1ccccc1)C(=O)N[C@H](C(=O)N[C@@H](CCC(=O)O)C(=O)N[C@@H](Cc1c[nH]c2ccccc12)C(=O)N[C@@H](CC(C)C)C(=O)N[C@@H](CC(C)C)C(=O)N[C@@H](CO)C(=O)N[C@@H](C)C(N)=O)[C@@H](C)CC)C(=O)O` [Compound 7] (HELM PEPTIDE1{H.[Aib].Q.G.T.F.T.S.D.Y.S.K.Y.L.D.E.K.R.A.K.D.F.I.E.W.L.L.S.A.[am]}|PEPTIDE2{[CCCCCCCCCCCCCCCC(=O)[*:2]].[gGlu]}$PEPTIDE1,PEPTIDE2,17:R3-2:R2$$$V2.0), for which, in [2], the “effect on body weight gain” value is “significantly decreased body weight gain”.
